In patent US10765114B2, “4-amino-6-(pyridyl and 2-substitutedphenyl)-picolinates and 6-amino-2-(pyridyl and 2-substitutedphenyl)-pyrimidine-4-carboxylates and their use as herbicides” (Dow AgroSciences LLC, priority 2013, dated 2020):

Experiments:
Experiment in all cases: Post-Emergent Test III (Wheat and Barley)
[1] = test system: SASKR (Russian thistle); type: in vivo, Salsola tragus; conditions: for Visual Growth Reduction (%) 21 Days After Application, SASKR: SASKR Russian thistle (Salsola iberica), post-emergent
Experimental: (§1) Seeds of the desired test plant species were planted in Sun Gro MetroMix® 306 planting mixture, which typically has a pH of 6.0 to 6.8 and an organic matter content of about 30 percent, in plastic pots with a surface area of 103.2 square centimeters (cm^2). When required to ensure good germination and healthy plants, a fungicide treatment and/or other chemical or physical treatment was applied. The plants were grown for 7-36 days in a greenhouse with an approximate 14 h photoperiod which was maintained at about 18° C. during the day and 17° C. during the night. Nutrients and water were added on a regular basis and supplemental lighting was provided with overhead metal halide 1000-Watt lamps as necessary. The plants were employed for testing when they reached the second or third true leaf stage.
(§2) A weighed amount, determined by the highest rate to be tested, of each test compound was placed in a 25 mL glass vial and was dissolved in 4 mL of a 97:3 v/v mixture of acetone and DMSO to obtain concentrated stock solutions. […] The concentrated stock solutions obtained were diluted with 20 mL of an aqueous mixture containing acetone, water, isopropyl alcohol, DMSO, Agri-Dex crop oil concentrate, and X-77 surfactant in a 48:39:10:1.5:1.5:0.02 v/v ratio to obtain spray solutions containing the highest application rates. Additional application rates were obtained by serial dilution of 12 mL of the high rate solution into a solution containing 2 mL of 97:3 v/v mixture of acetone and DMSO and 10 mL of an aqueous mixture containing acetone, water, isopropyl alcohol, DMSO, Agri-Dex crop oil concentrate, and X-77 surfactant in a 48:39:10:1.5:1.5:0.02 v/v ratio to obtain ½×, ¼×, ⅛× and 1/16× rates of the high rate. Compound requirements are based upon a 12 mL application volume at a rate of 187 liters per hectare (L/ha). Formulated compounds were applied to the plant material with an overhead Mandel track sprayer equipped with 8002E nozzles calibrated to deliver 187 L/ha over an application area of 0.503 square meters at a spray height of 18 inches (43 cm) above the average plant canopy height. Control plants were sprayed in the same manner with the solvent blank.
(§3) The treated plants and control plants were placed in a greenhouse as described above and watered by subirrigation to prevent wash-off of the test compounds. After 21 dAYS, the condition of the test plants as compared with that of the untreated plants was determined visually and scored on a scale of 0 to 100 percent where 0 corresponds to no injury and 100 corresponds to complete kill and presented as indicated in Table A.
(§4) By applying the well-accepted probit analysis as described by J. Berkson in Journal of the American Statistical Society, 48, 565 (1953) and by D. Finney in “Probit Analysis” Cambridge University Press (1952), herbicidal injury of a specific compound at various rates can be used to calculate GR10, GR20, GR50, GR80 and GR90 values, which are defined as growth reduction factors that correspond to the effective dose of herbicide required to provide plant growth reduction (GR) of 10 percent, 20 percent, 50 percent, 80 percent and 90 percent, respectively. Probit analysis was applied to data collected from multiple dose rates of individual compounds utilizing the procedures explained in the following examples. The analysis of those dose rates is captured in the following tables.

[2] = test system: KCHSC (kochia); type: in vivo, Kochia scoparia
How it was run: (§5)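 Post-emergence foliar spray, 187 L/ha, serial ½×–1/16× rates; plants at 2nd–3rd true leaf; greenhouse ~18 °C day/17 °C night, 14 h light; subirrigated after treatment. Visual injury 0–100% at 21 d vs untreated; GR values by probit analysis over multiple rates.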

[3] = test system: BRSSS; type: in vivo; conditions: for Visual Growth Reduction (%) 21 Days After Application, BRSSS: BRSSS oil seed rape (Brassica napus), post-emergent
How it was run: as §5

[4] = test system: HORSS; type: in vivo; conditions: crop; for Visual Growth Reduction (%) 21 Days After Application, HORSS: HORSS barley (Hordeum vulgare), post-emergent
How it was run: as §5

[5] = test system: TRZSS; type: in vivo; conditions: crop; for Visual Growth Reduction (%) 21 Days After Application, TRZSS: TRZSS wheat (Triticum aestivum), post-emergent
How it was run: as §5

[6] = test system: POLCO (wild buckwheat); type: in vivo, Polygonum convolvulus; conditions: for Visual Growth Reduction (%) 21 Days After Application, POLCO: POLCO wild buckwheat (Polygonum convolvulus), post-emergent
Experimental: as §1, §2, §3, §4

[7] = test system: LAMPU (purple deadnettle); type: in vivo, Lamium purpureum; conditions: for Visual Growth Reduction (%) 21 Days After Application, LAMPU: LAMPU purple deadnettle (Lamium purpureum), post-emergent
Experimental: as §1, §2, §3, §4

Q: With Nc1cc(-c2ccc(Cl)c(Cl)c2Cl)nc(C(=O)O)c1Cl [Compound 93] as the molecule, how does the “Visual Growth Reduction (%) 21 Days After Application, SASKR” value ([1]; 17.5 g ai/ha) read?
A: Its value is “B (85-94)”.

Q: And the “Visual Growth Reduction (%) 21 Days After Application, SASKR” value ([1]; 35 g ai/ha)?
A: Its value is “B (85-94)”.

Q: What about the “Visual Growth Reduction (%) 21 Days After Application, SASKR” value ([1]; 70 g ai/ha) of the same molecule?
A: The value was “B (85-94)”.

Q: And the “GR50, SASKR” value ([1]; SASKR, growth reduction of 50%, probit analysis, 21 days)?
A: Its value is 1 g ai/ha.

Q: And the “GR80, SASKR” value ([1]; SASKR, growth reduction of 80%, probit analysis, 21 days)?
A: The value was 10 g ai/ha.

Q: What about the “GR90, SASKR” value ([1]; SASKR, growth reduction of 90%, probit analysis, 21 days) of the same molecule?
A: Its value is 34 g ai/ha.

Q: And the pest or weed control at 17.5 g/ha ([2]; Bassia scoparia, post-emergence, 504 h, KCHSC kochia (Kochia scoparia), 17.5 g ai/ha, post-emergent, read-out: Visual Growth Reduction (%) 21 Days After Application, KCHSC)?
A: The pest or weed control at 17.5 g/ha was 85 to 94%.

Q: And the pest or weed control at 35 g/ha ([2]; Bassia scoparia, post-emergence, 504 h, KCHSC kochia (Kochia scoparia), 35 g ai/ha, post-emergent, read-out: Visual Growth Reduction (%) 21 Days After Application, KCHSC)?
A: The pest or weed control at 35 g/ha was 85 to 94%.

Q: What about the pest or weed control at 70 g/ha ([2]; Bassia scoparia, post-emergence, 504 h, KCHSC kochia (Kochia scoparia), 70 g ai/ha, post-emergent, read-out: Visual Growth Reduction (%) 21 Days After Application, KCHSC) of the same molecule?
A: The pest or weed control at 70 g/ha was 95 to 100%.

Q: And the “GR50, KCHSC” value ([2]; KCHSC, growth reduction of 50%, probit analysis, 21 days)?
A: Its value is 2 g ai/ha.

Q: And the “GR80, KCHSC” value ([2]; KCHSC, growth reduction of 80%, probit analysis, 21 days)?
A: The value was 10 g ai/ha.

Q: What about the “GR90, KCHSC” value ([2]; KCHSC, growth reduction of 90%, probit analysis, 21 days) of the same molecule?
A: The value was 27 g ai/ha.

Q: And the “Visual Growth Reduction (%) 21 Days After Application, BRSSS” value ([3]; 17.5 g ai/ha)?
A: Its value is “A (95-100)”.

Q: And the “Visual Growth Reduction (%) 21 Days After Application, BRSSS” value ([3]; 35 g ai/ha)?
A: Its value is “A (95-100)”.

Q: And the “Visual Growth Reduction (%) 21 Days After Application, BRSSS” value ([3]; 70 g ai/ha)?
A: Its value is “A (95-100)”.

Q: And the “GR50, BRSSS” value ([3]; BRSSS, growth reduction of 50%, probit analysis, 21 days)?
A: The value was 0 g ai/ha.

Q: What about the “GR80, BRSSS” value ([3]; BRSSS, growth reduction of 80%, probit analysis, 21 days) of the same molecule?
A: The value was 3 g ai/ha.

Q: What about the “GR90, BRSSS” value ([3]; BRSSS, growth reduction of 90%, probit analysis, 21 days) of the same molecule?
A: Its value is 11 g ai/ha.

Q: And the “Visual Growth Reduction (%) 21 Days After Application, HORSS” value ([4]; 17.5 g ai/ha)?
A: The value was “C (75-84)”.

Q: What about the “Visual Growth Reduction (%) 21 Days After Application, HORSS” value ([4]; 35 g ai/ha) of the same molecule?
A: The value was “B (85-94)”.

Q: And the “Visual Growth Reduction (%) 21 Days After Application, HORSS” value ([4]; 70 g ai/ha)?
A: The value was “B (85-94)”.

Q: What about the “GR10, HORSS” value ([4]; HORSS barley, growth reduction of 10%, probit analysis, 21 days) of the same molecule?
A: The value was 1 g ai/ha.

Q: What about the “GR20, HORSS” value ([4]; HORSS barley, growth reduction of 20%, probit analysis, 21 days) of the same molecule?
A: The value was 1 g ai/ha.

Q: And the “Visual Growth Reduction (%) 21 Days After Application, TRZSS” value ([5]; 17.5 g ai/ha)?
A: Its value is “C (75-84)”.

Q: And the “Visual Growth Reduction (%) 21 Days After Application, TRZSS” value ([5]; 35 g ai/ha)?
A: Its value is “B (85-94)”.

Q: And the “Visual Growth Reduction (%) 21 Days After Application, TRZSS” value ([5]; 70 g ai/ha)?
A: The value was “B (85-94)”.

Q: And the “GR10, TRZSS” value ([5]; TRZSS wheat, growth reduction of 10%, probit analysis, 21 days)?
A: The value was 1 g ai/ha.

Q: What about the “GR20, TRZSS” value ([5]; TRZSS wheat, growth reduction of 20%, probit analysis, 21 days) of the same molecule?
A: The value was 1 g ai/ha.

Q: What about the “Visual Growth Reduction (%) 21 Days After Application, POLCO” value ([6]; 17.5 g ai/ha) of the same molecule?
A: Its value is “B (85-94)”.

Q: And the “Visual Growth Reduction (%) 21 Days After Application, POLCO” value ([6]; 35 g ai/ha)?
A: Its value is “B (85-94)”.

Q: What about the “Visual Growth Reduction (%) 21 Days After Application, POLCO” value ([6]; 70 g ai/ha) of the same molecule?
A: Its value is “A (95-100)”.

Q: And the “GR50, POLCO” value ([6]; POLCO, growth reduction of 50%, probit analysis, 21 days)?
A: The value was 2 g ai/ha.

Q: What about the “GR80, POLCO” value ([6]; POLCO, growth reduction of 80%, probit analysis, 21 days) of the same molecule?
A: Its value is 7 g ai/ha.

Q: And the “GR90, POLCO” value ([6]; POLCO, growth reduction of 90%, probit analysis, 21 days)?
A: The value was 13 g ai/ha.

Q: And the “Visual Growth Reduction (%) 21 Days After Application, LAMPU” value ([7]; 17.5 g ai/ha)?
A: The value was “A (95-100)”.

Q: And the “Visual Growth Reduction (%) 21 Days After Application, LAMPU” value ([7]; 35 g ai/ha)?
A: The value was “A (95-100)”.

Q: What about the “Visual Growth Reduction (%) 21 Days After Application, LAMPU” value ([7]; 70 g ai/ha) of the same molecule?
A: The value was “A (95-100)”.

Q: And the “GR50, LAMPU” value ([7]; LAMPU, growth reduction of 50%, probit analysis, 21 days)?
A: The value was 1 g ai/ha.

Q: And the “GR80, LAMPU” value ([7]; LAMPU, growth reduction of 80%, probit analysis, 21 days)?
A: The value was 2 g ai/ha.

Q: And the “GR90, LAMPU” value ([7]; LAMPU, growth reduction of 90%, probit analysis, 21 days)?
A: Its value is 8 g ai/ha.
